Earlier results in patent US10265413B2, “High molecular weight biodegradable gelatin-doxorubicin conjugate” (priority 2014, dated 2019).

Settings: cumulative doses

COc1cccc2c1C(=O)c1c(O)c3c(c(O)c1C2=O)C[C@@](O)(C(=O)CO)C[C@@H]3O[C@H]1C[C@H](N)[C@H](O)[C@H](C)O1 [DOX, (7S,9S)-7-[(2R,4S,5S,6S)-4-amino-5-hydroxy-6-methyloxan-2-yl]oxy-6,9,11-trihydroxy-9-(2-hydroxyacetyl)-4-methoxy-8,10-dihydro-7H-tetracene-5,12-dione]
cumulative dose above which irreversible cardiomyopathy occurs: > 550 mg/m^2
